Among the test systems are SR leukemia; MCF7 breast; M14 melanoma; K-562 leukemia; SN12C renal; BT-549 breast; DU-145 prostate; SK-MEL-28 melanoma; EKVX NSCLC; HOP-62 NSCLC.
Experiment in all cases: growth of human tumour cells (NCI), 48 h

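48-hour exposure; five concentrations; linearly interpolated endpoints. GI50: concentration for 50% inhibition of growth. At the TGI there is no net growth.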

For `Fc1ccc(Nc2nc(Nc3ccc(-c4nc5ccccc5[nH]4)cc3)c3cn[nH]c3n2)cc1`, the GI50 is 2.22 µM with SR leukemia; 1.74 µM with MCF7 breast; 2.01 µM with M14 melanoma; 3.04 µM in the test on K-562 leukemia; 1.99 µM in the test on SN12C renal; 2.36 µM in the test on BT-549 breast. Moreover, the GI50 with DU-145 prostate was 1.87 µM; in the test on SK-MEL-28 melanoma, 1.88 µM; with EKVX NSCLC, 2.5 µM; in the test on HOP-62 NSCLC it was 2.04 µM. Moreover, the TGI in the test on SR leukemia is 5.9 µM; in the test on MCF7 breast, 4.12 µM; in the test with M14 melanoma it was 3.95 µM; in the test with K-562 leukemia, 7.41 µM; in the test on SN12C renal, 4.47 µM; in the test with BT-549 breast it was 6.4 µM. Further, the TGI with DU-145 prostate came to 3.75 µM; with SK-MEL-28 melanoma, 3.78 µM; in the test with EKVX NSCLC, 8.28 µM; in the test on HOP-62 NSCLC, 5.02 µM.
Consider `CCOC(=O)/C=C1/SC(=Nc2ccc(C#N)cc2)N(Cc2ccco2)C1=O`, for which the GI50 in the test on SR leukemia was 2.71 µM; in the test with MCF7 breast it was 2.7 µM; with M14 melanoma, 2.22 µM; with K-562 leukemia, 3.16 µM; in the test with SN12C renal, 2.45 µM; in the test on BT-549 breast it was 10.8 µM. Moreover, the GI50 was 3.17 µM with DU-145 prostate, 2.92 µM with SK-MEL-28 melanoma, 5.66 µM in the test with EKVX NSCLC and 2.94 µM in the test on HOP-62 NSCLC. Further, the TGI in the test on SR leukemia came to 8.41 µM; in the test with MCF7 breast it was 12.7 µM; in the test with M14 melanoma, 6.55 µM; in the test with K-562 leukemia it was 11.4 µM; with SN12C renal it was 6.76 µM; in the test with BT-549 breast, 52.6 µM. Also, the TGI with DU-145 prostate turned out to be 10.5 µM; in the test on SK-MEL-28 melanoma, 10.5 µM; in the test with EKVX NSCLC it was 30.2 µM; with HOP-62 NSCLC it was 9.21 µM.
As for `COc1ccc2c(c1)C(=O)c1c-2n(CCCN(C)C)c(=O)c2cc([N+](=O)[O-])ccc12`, the GI50 is less than 0.01 µM in the test with SR leukemia; less than 0.01 µM with MCF7 breast; less than 0.01 µM with M14 melanoma; less than 0.01 µM with K-562 leukemia; less than 0.01 µM in the test on SN12C renal; 0.0159 µM in the test with BT-549 breast. Also, the GI50 in the test on DU-145 prostate is less than 0.01 µM; with SK-MEL-28 melanoma, 0.192 µM; in the test with EKVX NSCLC, 0.181 µM; in the test with HOP-62 NSCLC it was less than 0.01 µM. Besides, the TGI was determined as 0.338 µM in the test on MCF7 breast; 0.0428 µM in the test on M14 melanoma; 2.29 µM in the test on K-562 leukemia; 10.7 µM in the test with SN12C renal; 0.621 µM in the test with BT-549 breast; 0.0319 µM with DU-145 prostate. Further, the TGI was 2.59 µM in the test on SK-MEL-28 melanoma, 16.4 µM with EKVX NSCLC and less than 0.0447 µM in the test with HOP-62 NSCLC.
Take `C=C(C)C(=O)Nc1ccc(-c2c(-c3ccc(Oc4nccc(C)n4)c(F)c3)c3c(N)ncnc3n2C)cc1`: the GI50 was 2.36 µM in the test with SR leukemia; 3.55 µM in the test on MCF7 breast; 5.64 µM in the test with M14 melanoma; 3.43 µM in the test on K-562 leukemia; 2.63 µM in the test on SN12C renal; 2.08 µM with BT-549 breast. In addition, the GI50 in the test on DU-145 prostate was 3.86 µM; with SK-MEL-28 melanoma, 4.38 µM; in the test on EKVX NSCLC it was 3.43 µM; with HOP-62 NSCLC it was 4.69 µM. In addition, the TGI is 9.64 µM with SR leukemia; 16.1 µM in the test on MCF7 breast; 20 µM in the test on M14 melanoma; more than 100 µM in the test on K-562 leukemia; 17.2 µM in the test on SN12C renal; 15.8 µM in the test with BT-549 breast. Moreover, the TGI with DU-145 prostate was 15.3 µM; in the test on SK-MEL-28 melanoma, 17.6 µM; with EKVX NSCLC, 17.1 µM; with HOP-62 NSCLC, 20 µM.
For the molecule `COC(=O)CC1=C(C)/C(=C/c2[nH]c(-c3ccc[nH]3)cc2OC)N=C1C`, the GI50 with SR leukemia was 0.133 µM; in the test on MCF7 breast it was 0.0828 µM; in the test on M14 melanoma, 0.272 µM; in the test on K-562 leukemia it was 0.218 µM; in the test on SN12C renal, 0.458 µM; in the test on BT-549 breast, 0.196 µM. Besides, the GI50 in the test with DU-145 prostate was 0.315 µM; with SK-MEL-28 melanoma, 0.456 µM; in the test with EKVX NSCLC, 0.584 µM; in the test with HOP-62 NSCLC, 0.192 µM. The TGI with SR leukemia is 0.677 µM; in the test on MCF7 breast, 0.733 µM; with M14 melanoma it was 0.863 µM; in the test on K-562 leukemia it was 10.6 µM; in the test on SN12C renal it was 9.19 µM; in the test on BT-549 breast, 4.29 µM. The TGI is 12.8 µM with DU-145 prostate, 2.53 µM in the test on SK-MEL-28 melanoma, 10.1 µM with EKVX NSCLC and 1.12 µM in the test with HOP-62 NSCLC.
With `C=CCSC(C)=O`, the TGI in the test on SR leukemia, in the test on MCF7 breast, in the test on M14 melanoma, in the test on K-562 leukemia, in the test with SN12C renal and with BT-549 breast was more than 100 µM throughout. Besides, the TGI in the test with DU-145 prostate, in the test with SK-MEL-28 melanoma, in the test with EKVX NSCLC and with HOP-62 NSCLC was more than 100 µM each time.

(Values after PubChem BioAssay (NCI).)
